What was measured:
human CB1 [1] = target: T1, human CB1 (Homo sapiens, UniProt P21554); assay: functional fluorescent calcium mobilization assay, antagonism of CP55,940 (Ke); type: cell-based; conditions: for Kd: apparent equilibrium dissociation constant, CHO cells expressing human CB1 along with Gqα16, agonist CP55,940, read-out: Ke hCB1
T1 construct: expressed in transfected cells; host or cells: CHO cells co-expressing Gqα16
Protocol: (§1) A functional fluorescent calcium mobilization was performed in CHO cells expressing human CB1 along with Gqα16. In FIG. 1A, a concentration-dependent increase in fluorescence upon treatment with the CB1 agonist CP55,940 is shown (solid line/triangle markers). […] The EC50 values in the presence and absence of the antagonist are used to calculate antagonist apparent equilibrium dissociation constant (Ke). Suppression of basal signaling in the absence of any stimulation/agonism was measured using the same approach. […] Provided data are representative of a minimum of three experiments and were fitted using non-linear regression analyses in GraphPad Prism.

human CB1 [2] = target: T1, human CB1; assay: radioligand displacement assay using [3H]CP55940 in CHO cell membrane preparations; type: binding; conditions: [3H]CP55940 displacement, CHO cell membranes overexpressing human CB1; read-out: Ki hCB1
Source text: (§2) See Ki values above, based on radioligand displacement assay using ^3H-CP55940, a synthetic cannabinoid, (−)-cis-3-[2-hydroxy-4-(1,1-dimethylheptyl)phenyl]-trans-4-(3-hydroxypropyl)cyclohexanol, which is a compound commonly used to study the endocannabinoid system.

human CB2 = human CB2 (Homo sapiens, UniProt P34972); assay: radioligand displacement assay using [3H]CP55940 in CHO cell membrane preparations (CB2, for selectivity); type: binding; conditions: ratio of Ki human CB2 / human CB1
Sequence of human CB2 (P34972 whole entry): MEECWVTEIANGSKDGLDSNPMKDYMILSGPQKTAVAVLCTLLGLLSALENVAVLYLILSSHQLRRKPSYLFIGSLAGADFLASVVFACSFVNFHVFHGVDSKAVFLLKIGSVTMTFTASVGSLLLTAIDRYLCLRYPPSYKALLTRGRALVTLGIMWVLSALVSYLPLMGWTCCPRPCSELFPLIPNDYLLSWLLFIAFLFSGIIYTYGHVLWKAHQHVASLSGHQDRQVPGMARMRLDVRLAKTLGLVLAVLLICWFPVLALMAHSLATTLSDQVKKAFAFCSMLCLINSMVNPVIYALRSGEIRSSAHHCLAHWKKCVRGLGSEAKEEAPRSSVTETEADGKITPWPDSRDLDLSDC
Source text: as §2

HLM stability = type: in vitro ADME; conditions: for HLM HL: HLM half-life; for microsomal CLint: human, liver microsomes, HLM clearance, read-out: HLM Cl
human CB1 [3] = target: T1, human CB1; assay: suppression of basal signaling in fluorescent calcium mobilization assay (inverse agonism); type: cell-based
Protocol: as §1, with “Gqα16.” for “Gqα16. In FIG. 1A, a concentration-dependent increase in fluorescence upon treatment with the CB1 agonist CP55,940 is shown (solid line/triangle markers).”

C57BL6 male mice = assay: THC drug discrimination model; type: in vivo
Source text: Drug discrimination is a behavioral model of the interoceptive effects of a compound. This pharmacologically selective model has high predictive validity, producing a strong correlation between drugs that have sharing discriminative stimulus properties in animals and drugs that humans identify as having similar subjective effects. FIG. 3 provides the results of this study, in which C57BL6 male mice (n=8) were trained to discriminate the reference drug (THC) using a discrimination procedure similar to that described in Wiley et al., Neuropharmacology 75, 145-154 (2013), Van et al., Eur. J. Pharmacol. 615, 102-107, and Wiley et al., J. Pharmacol. Exp. Ther. 354, 328-339 (2015), which are incorporated herein by reference in their entireties. For each session, the percentage of responses on the drug-associated lever and response rate response(s) were calculated.

male C57BL/6J mice = assay: reversal of diet-induced obesity (DIO) in mice; type: in vivo; conditions: oral, 1x daily, 5 days per week
Protocol: Preconditioned male C57BL/6J mice were purchased from the Jackson Laboratories (Bar Harbor, Maine) at 18 weeks of age. These animals were maintained either on ad libitum standard diet (SD) with 10% fat (D12450B) or on 60% high fat diet (HFD; D12492) from Research Diets (New Brunswick, NJ.) Animals were dosed by intragastric gavage once daily Monday-Friday (5 days per week) with either vehicle (0.5% sodium carboxymethylcellulose with 1% NMP and 0.3% Tween 80 in de-ionized water) or Compound 3 suspended in the vehicle. Body weights were recorded at regular intervals. Organs were removed and processed as has been described in the legend of FIG. 4. Biomarkers of efficacy were measured including circulating enzymes, liver weight and liver adiposity as indicated.
Data were reported as mean (FIG. 4A) or mean and range (FIGS. 4B and 4C). […] Hepatic statosis was reduced, as assessed using Oil Red O staining (FIG. 4G), with representative images shown as FIGS. 4H, 4I, and 4J. Significance was calculated using ANOVA with Fisher's test (p<0.05*, 0.01**, 0.001***, 0.0001****).

CB1 receptor = target: T2, CB1 receptor (Mus musculus, UniProt P47746); assay: PET target engagement with CB1 radiotracer 11C-JHU75528; type: in vivo; conditions: male and female B6 mice, IP pretreatment
T2 construct: from tissue; host or cells: brain of living B6 mice (in vivo PET)
T2 sequence (P47746 whole entry): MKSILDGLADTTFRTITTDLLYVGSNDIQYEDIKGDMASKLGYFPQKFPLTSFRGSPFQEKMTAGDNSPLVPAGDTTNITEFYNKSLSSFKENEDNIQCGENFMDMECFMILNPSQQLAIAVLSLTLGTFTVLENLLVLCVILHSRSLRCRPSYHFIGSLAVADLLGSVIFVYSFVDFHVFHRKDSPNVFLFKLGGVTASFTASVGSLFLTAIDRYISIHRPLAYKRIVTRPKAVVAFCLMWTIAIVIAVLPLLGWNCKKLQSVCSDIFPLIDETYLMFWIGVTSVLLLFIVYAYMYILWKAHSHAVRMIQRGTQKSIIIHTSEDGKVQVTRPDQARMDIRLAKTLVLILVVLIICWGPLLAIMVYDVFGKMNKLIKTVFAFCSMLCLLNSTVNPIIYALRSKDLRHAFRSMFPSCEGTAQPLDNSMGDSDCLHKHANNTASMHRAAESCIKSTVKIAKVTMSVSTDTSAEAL
Protocol: FIG. 5A provides a representative image of target specificity of Compound 3 for the CB1 receptor in mice along with quantification. […] The well-characterized CB1 radiotracer ^11C-JHU75528 was used for this purpose. A baseline response for each animal (2 male and 2 female mice) was first established using the vehicle and tracer (~10 MBq in 0.1-0.15 ml volume, tail vein catheter). Following a 48-hr washout, animals were administered Compound 3 via intraperitoneal (IP) injection followed by the probe. PET image acquisition by dynamic scanning was performed for 65 min after the second injection with energy window of 350-700 KeV. […] The PET images were normalized to the standardized uptake value (SUV) unit. Two-tissue compartmental model was applied using the PKIN module in PMOD 4.0 software. See, e.g., FIG. 5B, where quantification of the signal confirmed a blocking effect on cerebral uptake. Compound 3 blocked ^11C-JHU75528 uptake, confirming in vivo activity.

T1 sequence (P21554 whole entry): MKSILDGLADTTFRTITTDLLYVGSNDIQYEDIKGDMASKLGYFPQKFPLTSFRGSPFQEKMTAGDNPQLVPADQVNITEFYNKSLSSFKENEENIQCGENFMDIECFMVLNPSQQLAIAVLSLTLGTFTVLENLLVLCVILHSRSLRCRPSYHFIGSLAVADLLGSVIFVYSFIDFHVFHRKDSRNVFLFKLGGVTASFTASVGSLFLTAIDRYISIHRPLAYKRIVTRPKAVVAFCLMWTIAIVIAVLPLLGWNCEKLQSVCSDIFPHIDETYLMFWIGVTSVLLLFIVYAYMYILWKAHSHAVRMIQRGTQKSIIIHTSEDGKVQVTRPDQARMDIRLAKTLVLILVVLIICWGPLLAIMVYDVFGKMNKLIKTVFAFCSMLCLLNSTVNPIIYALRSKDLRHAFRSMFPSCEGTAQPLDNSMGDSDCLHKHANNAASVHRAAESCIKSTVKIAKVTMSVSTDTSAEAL

Row | SMILES | Kd (human CB1 [1]) | Ki (human CB1 [2]) | Selectivity Ki (CB2/CB1) (human CB2) | HLM HL (HLM stability) | microsomal CLint (HLM stability) | further results
1 | CC1(NC(=O)Cc2ccc(F)cc2)CCN(c2ncnc3c2nc(-c2ccccc2Cl)n3-c2ccc(Cl)cc2)CC1 [Compound 5, N-{1-[8-(2-Chlorophenyl)-9-(4-chlorophenyl)-9H-purin-6-yl]-4-methylpiperidin-4-yl}-2-(4-fluorophenyl)acetamide] | 1.8 nM | – | – | – | – | –
2 | O=C(Cc1ccccc1F)NC1CCN(c2ncnc3c2nc(-c2ccccc2Cl)n3-c2ccc(Cl)cc2)CC1 [Compound 1, N-{1-[8-(2-Chlorophenyl)-9-(4-chlorophenyl)-9H-purin-6-yl]piperidin-4-yl}-2-(2-fluorophenyl)acetamide] | 1 nM | 1.5 nM | 110 | 146 min | 9 µL/min/mg | –
3 | CC1(NC(=O)Cc2ccccc2F)CCN(c2ncnc3c2nc(-c2ccccc2Cl)n3-c2ccc(Cl)cc2)CC1 [Compound 4, N-{1-[8-(2-Chlorophenyl)-9-(4-chlorophenyl)-9H-purin-6-yl]-4-methylpiperidin-4-yl}-2-(2-fluorophenyl)acetamide] | 3.8 nM | – | – | – | – | –

Continued, in another order:

Row | Kd (human CB1 [1]) | Ki (human CB1 [2]) | Selectivity Ki (CB2/CB1) (human CB2) | HLM HL (HLM stability) | microsomal CLint (HLM stability) | SMILES | further results
4 | 1 nM | 1.4 nM | 210 | 150 min | 8 µL/min/mg | O=C(Cc1ccc(F)cc1)NC1CCN(c2ncnc3c2nc(-c2ccccc2Cl)n3-c2ccc(Cl)cc2)CC1 [Compound 2, N-{1-[8-(2-Chlorophenyl)-9-(4-chlorophenyl)-9H-purin-6-yl]piperidin-4-yl}-2-(4-fluorophenyl)acetamide] | –
5 | 0.8 nM | 1.1 nM | 510 | 133 min | 9 µL/min/mg | O=C(Cc1ccc(F)cc1F)NC1CCN(c2ncnc3c2nc(-c2ccccc2Cl)n3-c2ccc(Cl)cc2)CC1 [Compound 3, N-{1-[8-(2-Chlorophenyl)-9-(4-chlorophenyl)-9H-purin-6-yl]piperidin-4-yl}-2-(2,4-difluorophenyl)acetamide] | antagonism: shift of the CP55,940 curve (human CB1 [1]; pre-incubation with antagonist): rightward shift; effect on basal signaling (inverse agonism) (human CB1 [3]; absence of any stimulation/agonism): partial inverse agonist; Emax (human CB1 [3]; read-out: partial suppression of maximal response (basal signaling), % of rimonabant Emax): ~30%; response rates (C57BL6 male mice; compared to controls): not significantly altered; maximum inhibition of THC drug discrimination (C57BL6 male mice; compared with rimonabant): comparable to that of rimonabant; THC drug discrimination (C57BL6 male mice; mice trained on 5.6 mpk THC, 3, 5.6 and 10 mpk antagonist): antagonize; body weight (male C57BL/6J mice): significantly reduced; circulating transaminase ALT (male C57BL/6J mice): reduce; circulating transaminase AST (male C57BL/6J mice): reduce; hepatic cholesterol content (male C57BL/6J mice): decrease; hepatic steatosis (Oil Red O staining) (male C57BL/6J mice): reduced; epididymal adipose weight (male C57BL/6J mice; normalized to tibia length): significantly reduced; liver weight (male C57BL/6J mice; normalized to tibia length): significantly reduced; 11C-JHU75528 cerebral uptake (PET) (CB1 receptor): blocked
